How the values were obtained:
Format in all cases: in vivo, piglets
[1] = system: colistin-resistant Enterobacteriaceae; experiment: Piglet model: faecal counts of colistin-resistant Enterobacteriaceae; settings: during follow-up (14 days)
Method: (§1) The model was used according to the synopsis depicted in FIG. 1.
(§2) Colistin sulfate (Colivet), a non absorbable antibiotic, used in human decontamination, was given once per day orally in this experiment. Two regimens were tested: 7.5 mg/kg/d and 15 mg/kg/d, equivalent to human doses 500 mg/d and 1000 mg/d, respectively. The duration of the treatment was 3 days. The objective of such very high doses, given over a short period of time, was to obtain a rapid eradication of ESBL-producing Enterobacteriaceae without the emergence of strains resistant to colistin. • E. coli Nissle strain 1917 (EcN1917, Mutaflor). The dose was calculated to administrate the highest dose recommended in humans: 2 enteric-coated capsules of 2.5-25×10^9 viable bacteria, given orally, once daily during 6 days.
(§3) Fresh faecal samples were collected from each piglet, diluted ten-fold (w/v) in peptone broth containing 30% glycerol, and faecal suspension aliquots were stored at −80° C. until microbiological analysis.
(§4) Before analysis, frozen aliquots were thawed by standing approximately 1 hr at room temperature and faecal suspensions were serially diluted in saline before plating on appropriate agar plates.
Cefotaxime- and colistin-resistant Enterobacteriaceae were counted using Drigalski agar supplemented with 1.5 mg/L cefotaxime and 10 mg/L colistin base respectively. […]

[2] = system: ESBL-producing Enterobacteriaceae; experiment: Piglet model: faecal counts of cefotaxime-resistant (ESBL-producing) Enterobacteriaceae after colistin decontamination and E. coli Nissle 1917 repopulation
Method: as §1
In summary, piglets were treated sequentially with: • cefdinir (4 mg/kg/d) during 2 days, in order to enhance the carriage of ESBL-producing bacteria, • colistin sulfate (destroy phase):
as §2, §3, §4
Total Enterobacteriaceae were counted using Drigalski agar (BioRad Laboratories, Marnes-La-Coquette, France) plates.
Cefotaxime- and colistin-resistant Enterobacteriaceae were counted using Drigalski agar supplemented with 1.5 mg/L cefotaxime and 10 mg/L colistin base respectively.
Bacterial counts which were below the detection threshold (2 log CFU/g of faeces) were considered to be equal to the 2 log CFU/g for statistical analysis.

[3] = Microbiological assay of faecal concentrations of colistin; settings: 15 mg/kg/d colistin sulfate
Method: Fecal concentrations of colistin were measured by a microbiological assay using agar medium 10 (Difco, Becton-Dickinson, Le Pont-de-Claix) and Bordetella bronchiseptica ATCC4617 as indicator strain. The limit of detection was 1.5 μg of colistin base per g of feces.
as §3

colistin sulfate
selection of strains resistant to colistin [1]: no selection of strains resistant to colistin was observed
efficacy to eradicate ESBL-producing enterobacteria (destroy phase) ([2]; 15 mg/kg/d compared with 7.5 mg/kg/d, orally once per day, 3 days): best efficacy
decolonization of ESBL-producing enterobacteria ([2]; colistin for three days followed by six days of E. coli strain Nissle 1917): rapid and efficacious decolonization
efficacy in the restore phase ([2]; group which had received the high dose of colistin): best efficacy
faecal concentrations relative to the MIC [3]: at least 10 fold

Source: US20130323217A1, “COMPOSITIONS AND METHODS FOR THE CONTROLLED REPOPULATION OF GRAM-NEGATIVE BACTERIA IN THE COLON” (Da Volterra, priority 2010, published 2013)
